Results from patent US20240299393A1, “SMALL MOLECULE DISRUPTORS OF PROTEIN INTERACTIONS IN HISTONE DEACETYLASE COMPLEXES” (Dana-Farber Cancer Institute, Inc., priority 2021, published 2024).

Assays:
[1] = tested on: human neuroblastoma SK-N-BE(2)-C cells; experiment: Single-cell RNA-seq in neuroblastoma cells; assay type: cell-based; details: 1 μM TSA, 25 μM E6R, 16 h
Description: Cells were grown in DMEM media supplemented with 10% FBS+PS in a 5% CO2 incubator at 37° C. […] Cells were harvested by incubating them in TryplE for 10 min. Cells were spun down for 5 min at 300 g, and the supernatant was removed. Cells were counted via hemocytometer to 20,000 cells and resuspended in 200 μL of media.
High-throughput scRNA-seq was performed using the Seq-Well S^3 platform as previously described [Gierahn et al 2017, Hughes et al 2020]. Briefly, 20,000 cells were applied to the surface of each Seq-Well array which had been preloaded with uniquely barcoded poly(dT) mRNA capture beads (Chemgenes). Following cell loading, arrays were washed with RPMI and then sealed with a polycarbonate membrane and placed in a 37° C. incubator for 30 min. After membrane sealing, the arrays were submerged in a lysis buffer (5 M guanidine thiocyanate, 10 mM EDTA, 0.1% β-mercaptoethanol, 0.1% Sarkosyl) for 20 min, and subsequently incubated in a 2 M NaCl hybridization buffer for 40 min to promote hybridization of the mRNA to the bead-bound capture oligos. Next, the beads were removed from the arrays, and they were resuspended in a master mix for reverse transcription containing Maxima H Minus Reverse Transcriptase and buffer, dNTPs, RNase inhibitor, a template switch oligonucleotide, and PEG for 30 min at room temperature, and overnight at 52° C. with end-over-end rotation. […] Then, the eluted products were quantified using a Qubit. cDNA libraries were then created using Illumina Nextera XT DNA Library Preparation Kit. Library cleanup was performed using SPRI purification as described above and library concentration and size distribution was determined using a Qubit fluorometer and Agilent TapeStation. Libraries for each sample were sequenced on a NextSeq 500 and a Nextseq 2000 with the following read structures: read 1: 21 bp; read 2: 50 bp; and index 1: 8 bp, and read 1: 26 bp; read 2: 50 bp; and index 1: 8 bp respectively. For each library 21 bases were sequenced in read 1, containing the cell barcode (12 bp) information and a unique molecular identifier (UMII, 8 bp), whereas 50 bases were obtained for the read 2 sequence. After sequencing, reads were demultiplexed using Illumina bcl2fastq (v2.20.0.422) and the resulting FASTQs were concatenated and aligned to the human “GRCh38-2020-A” reference genome using StarSolo alignment pipeline (v2.7.9a) on Terra.
Subsequently, low quality cells were filtered out, including cells with fewer than 200 unique genes, greater than 9,000 unique genes, and greater than 40% mitochondrial reads, resulting in 46,751 cells and 25,468 genes. […] Differentially expressed genes were determined using the FindMarkers function on Seurat with “test.use=MAST” and default parameters. […]

[2] = tested on: Rpd3-regulated genes (URS-URA3, INO1, IME2, CAR1, SPO13, TRK2); experiment: RT-qPCR of Rpd3-regulated genes in yeast; assay type: cell-based, S. cerevisiae; details: for derepression of URS-URA3 in deletion strains: rpd3Δ, sin3Δ, ume6Δ, sin3Δ/ume6Δ
Description: After yeast cells reached OD600 nm ˜0.5 in 0.8-1 mL of YPD, they were grown for two more hours at room temperature before being centrifuged to remove supernatant and freezing pellets on dry ice. For compound treatments, yeast cells at OD600 nm˜0.5 in YPD were incubated at room temperature for two hours with DMSO (1-1.6%) or the desired compound (from 25 mM stock in 100% DMSO) in an 2 mL-tube for a final volume of 0.8 mL in YPD, before being centrifuged, washed and frozen as described above. Yeast cells were then harvested for RNA extraction using a RiboPure RNA Purification Kit (Invitrogen, cat #AM1926), which involves mechanical cell wall disruption, phenol extraction of the lysate, and RNA purification using glass fiber, and filter-based RNA purification columns. RNA concentration was measured for individually purified RNA samples using a NanoDrop spectrophotometer. A total of 1 μg RNA from each sample was used for reverse transcription following a published procedure [Choi, S. G. et al 2012].
The RT-qPCR protocol used in this study was described elsewhere [Choi et al 2012]. Culture, RNA extraction, and compound treatments for neuroblastoma SK-N-BE(2)-C cells are described below. Approximately 1 μg RNA per sample was used for reverse transcription. Using a thermocycler, RNA was denatured in the presence of 0.2 μg 18 mer oligo-dT by heating the plate at 65° C. for 10 min. The plate was then immediately cooled down on ice to anneal oligo-dT on the poly-A tail of mRNA. A master mix of AffinityScript Multiple Temperature Reverses Transcriptase (Agilent, cat #600107) was prepared following the manufacturer's protocol, and mixed with RNA samples previously annealed with the oligo-dT. The plate was incubated at 42° C. for 2 h to generate cDNAs from mRNA templates. The reverse transcriptase was then denatured by heating the plate at 70° C. for 15 min. The resulting cDNA was diluted (1:20) in sterile, ultra pure water (ddH2O), and stored at −20° C. until used for qPCR. To measure gene expression, the diluted cDNA was mixed with 5 μL PowerUp SYBR Green master mix (Applied Biosystems, cat #A25743), and the mix of primers (forward+reverse, see FIG. 31; 0.3 μM final concentration) for a total volume of 10 μL. Two technical replicates were generated per cDNA sample in the 384-well PCR plate (Applied Biosystems, cat #4343370). The plate was tightly sealed with optical adhesive film (Applied Biosystems, cat #4311971). Quantitative PCR was conducted with a QuantStudio real-time PCR system from Applied Biosystems, with the following settings: 50° C./2 min, 95° C./10 min, 96° C./15 s/40 cycles, and 60° C./30 s. Dissociation curves were checked for each PCR product, to assess the specificity of the PCR amplicons.
Expression of gene X normalized to the control gene expression=k*1.96^(Ct^Control^−Ct^Test^) • where k is an arbitrary multiplier (k=1000 in this study), 1.96 is the PCR amplification efficiency constant, Ct is the cycle threshold, CtControl is the Ct value for the housekeeping gene used as control (UBC6 in yeast [Teste et al 2009]; RPS11 in human cells [Zhan et al 2014], and CtTest is the Ct value for the tested gene. Replicates corresponding to DMSO treatments or WT yeast cells were averaged and other data points normalized using those DMSO or WT values as references (i.e. expression relative to DMSO or WT). TAF10 in yeast or SNRPD3 in human cells were used as genes not known for being regulated by an HDAC complex (HDAC-unrelated genes).

SMILES | genes also downregulated by scRNA-seq, among 22 downregulated in bulk RNA-seq [1] | genes also upregulated in scRNA-seq, among 65 upregulated in bulk RNA-seq [1] | expression at URS-URA3 compared to E6S ([2]; different doses) | effect on CAR1 and SPO13 expression ([2]; 250 μM) | effect on all Rpd3-regulated loci ([2]; FIG. 3I) | derepression of URS-URA3 in deletion strains ([2]; 250 μM) | increase of INO1 expression ([2]; 250 μM, relative to DMSO)
C[C@@H](NC(=O)c1c(O)n2ccccc2nc1=O)c1ccccc1 [E6R, 4-hydroxy-2-oxo-N—((R)-1-phenylethyl)-3,4-dihydro-2H-pyrido[, 2-a]pyrimidine-3-carboxamide] | 5 genes | 22 genes | stronger induction of expression at URS-URA3 | – | – | – | –
CC(/C=C/C(=O)NO)=C\[C@@H](C)C(=O)c1ccc(N(C)C)cc1 [TSA, trichostatin A] | 13 genes | 43 genes | – | consistently derepressed | activated all Rpd3-regulated loci | no effect | –
CC(NC(=O)c1c(O)n2ccccc2nc1=O)c1ccccc1 (racemic) [E6] | – | – | – | – | – | drastically decreased | ~150 fold
